Measured values reported in ChEMBL document CHEMBL5465560, “Selectivity Literature for EUbOPEN Chemogenomic Library” (2024).

Key:
[1] = molecular target: T1, TGF-beta receptor type-1 (Homo sapiens) (UniProt P36897); test: Selectivity interaction (KinomeScan (DiscoverX)) EUB0000229b TGFBR1; conditions: at 10 µM
T1 sequence (whole entry): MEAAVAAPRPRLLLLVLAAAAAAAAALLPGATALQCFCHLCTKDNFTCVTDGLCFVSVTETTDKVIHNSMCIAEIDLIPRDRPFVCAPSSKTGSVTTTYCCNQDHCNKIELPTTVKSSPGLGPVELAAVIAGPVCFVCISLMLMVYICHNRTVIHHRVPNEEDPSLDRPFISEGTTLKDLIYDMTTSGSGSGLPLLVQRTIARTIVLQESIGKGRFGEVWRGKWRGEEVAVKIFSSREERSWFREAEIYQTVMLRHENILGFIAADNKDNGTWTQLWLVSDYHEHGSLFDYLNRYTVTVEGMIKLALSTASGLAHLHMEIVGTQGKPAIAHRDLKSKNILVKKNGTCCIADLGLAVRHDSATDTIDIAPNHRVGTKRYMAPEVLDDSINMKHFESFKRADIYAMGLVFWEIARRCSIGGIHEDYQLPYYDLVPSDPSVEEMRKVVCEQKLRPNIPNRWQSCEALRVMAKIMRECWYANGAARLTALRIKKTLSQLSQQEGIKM

[2] = molecular target: Ribosomal protein S6 kinase alpha-2 (Homo sapiens) (UniProt Q15349); conditions: at 10 µM
Chain of Ribosomal protein S6 kinase alpha-2 (Homo sapiens) (Q15349 whole entry): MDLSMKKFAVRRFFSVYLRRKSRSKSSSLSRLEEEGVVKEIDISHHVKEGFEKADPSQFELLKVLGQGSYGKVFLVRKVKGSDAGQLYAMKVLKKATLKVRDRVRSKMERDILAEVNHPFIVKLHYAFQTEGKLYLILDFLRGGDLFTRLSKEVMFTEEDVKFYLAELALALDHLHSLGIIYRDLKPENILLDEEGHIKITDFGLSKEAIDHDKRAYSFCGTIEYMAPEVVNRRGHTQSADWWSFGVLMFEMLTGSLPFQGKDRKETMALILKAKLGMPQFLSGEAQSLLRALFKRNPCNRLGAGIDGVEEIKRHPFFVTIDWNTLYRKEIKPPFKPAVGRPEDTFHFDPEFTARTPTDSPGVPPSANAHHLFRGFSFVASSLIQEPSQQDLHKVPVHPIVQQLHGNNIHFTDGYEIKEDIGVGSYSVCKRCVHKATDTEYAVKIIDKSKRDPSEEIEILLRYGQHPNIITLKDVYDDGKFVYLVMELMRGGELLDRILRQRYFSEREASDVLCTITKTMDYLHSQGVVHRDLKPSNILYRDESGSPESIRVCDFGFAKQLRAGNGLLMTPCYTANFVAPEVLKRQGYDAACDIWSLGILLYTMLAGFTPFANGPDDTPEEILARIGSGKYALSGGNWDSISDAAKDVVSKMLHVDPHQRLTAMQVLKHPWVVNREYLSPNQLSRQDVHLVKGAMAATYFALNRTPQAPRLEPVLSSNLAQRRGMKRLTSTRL

[3] = molecular target: Cyclin-dependent kinase 10 (Homo sapiens) (UniProt Q15131); test: Selectivity interaction (ActivX KiNativ screen (kinase selectivity in THP-1 cell lysates)) EUB0000639a CDK10; type: subcellular; conditions: lysate
Chain of Cyclin-dependent kinase 10 (Homo sapiens) (Q15131 whole entry): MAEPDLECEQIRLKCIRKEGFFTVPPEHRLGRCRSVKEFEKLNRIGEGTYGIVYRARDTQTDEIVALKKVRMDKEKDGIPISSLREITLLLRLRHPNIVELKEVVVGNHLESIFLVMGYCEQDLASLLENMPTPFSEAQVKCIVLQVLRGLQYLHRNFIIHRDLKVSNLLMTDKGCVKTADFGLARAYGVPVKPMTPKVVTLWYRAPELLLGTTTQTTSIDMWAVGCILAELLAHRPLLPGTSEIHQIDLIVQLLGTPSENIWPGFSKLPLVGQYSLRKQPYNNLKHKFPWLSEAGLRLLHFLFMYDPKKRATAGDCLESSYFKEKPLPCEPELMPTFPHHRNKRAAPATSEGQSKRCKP

[4] = molecular target: Ribosomal protein S6 kinase alpha-1 (Homo sapiens, UniProt Q15418); test: Selectivity interaction (ActivX KiNativ screen (kinase selectivity in THP-1 cell lysates)) EUB0000639a RPS6KA1; type: subcellular; conditions: lysate, at 0.01 µM
Chain of Ribosomal protein S6 kinase alpha-1 (Q15418 whole entry): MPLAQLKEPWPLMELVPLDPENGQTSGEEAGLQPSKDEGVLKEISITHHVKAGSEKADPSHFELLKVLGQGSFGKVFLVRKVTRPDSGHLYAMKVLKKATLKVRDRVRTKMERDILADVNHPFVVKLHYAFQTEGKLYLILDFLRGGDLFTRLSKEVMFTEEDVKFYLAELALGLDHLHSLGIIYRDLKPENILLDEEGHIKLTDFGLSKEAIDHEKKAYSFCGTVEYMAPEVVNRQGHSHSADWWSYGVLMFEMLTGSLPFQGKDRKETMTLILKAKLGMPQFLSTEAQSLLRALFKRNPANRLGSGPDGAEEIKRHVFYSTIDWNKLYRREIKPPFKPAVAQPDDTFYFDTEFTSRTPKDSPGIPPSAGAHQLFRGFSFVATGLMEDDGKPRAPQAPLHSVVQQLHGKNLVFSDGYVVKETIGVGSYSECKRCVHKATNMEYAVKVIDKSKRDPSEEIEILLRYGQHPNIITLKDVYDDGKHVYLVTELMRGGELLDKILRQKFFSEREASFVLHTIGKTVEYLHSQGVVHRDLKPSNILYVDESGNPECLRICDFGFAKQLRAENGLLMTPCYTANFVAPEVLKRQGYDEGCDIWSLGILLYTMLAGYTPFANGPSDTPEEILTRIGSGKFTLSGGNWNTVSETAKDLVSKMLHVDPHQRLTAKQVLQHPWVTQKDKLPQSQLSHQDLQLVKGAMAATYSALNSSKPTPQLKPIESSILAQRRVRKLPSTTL

[5] = molecular target: Ribosomal protein S6 kinase beta-1 (Homo sapiens, UniProt P23443); test: Selectivity interaction (KinomeScan (DiscoverX)) EUB0000595a RPS6KB1; conditions: at 10 µM
Chain of Ribosomal protein S6 kinase beta-1 (P23443 whole entry, looked up): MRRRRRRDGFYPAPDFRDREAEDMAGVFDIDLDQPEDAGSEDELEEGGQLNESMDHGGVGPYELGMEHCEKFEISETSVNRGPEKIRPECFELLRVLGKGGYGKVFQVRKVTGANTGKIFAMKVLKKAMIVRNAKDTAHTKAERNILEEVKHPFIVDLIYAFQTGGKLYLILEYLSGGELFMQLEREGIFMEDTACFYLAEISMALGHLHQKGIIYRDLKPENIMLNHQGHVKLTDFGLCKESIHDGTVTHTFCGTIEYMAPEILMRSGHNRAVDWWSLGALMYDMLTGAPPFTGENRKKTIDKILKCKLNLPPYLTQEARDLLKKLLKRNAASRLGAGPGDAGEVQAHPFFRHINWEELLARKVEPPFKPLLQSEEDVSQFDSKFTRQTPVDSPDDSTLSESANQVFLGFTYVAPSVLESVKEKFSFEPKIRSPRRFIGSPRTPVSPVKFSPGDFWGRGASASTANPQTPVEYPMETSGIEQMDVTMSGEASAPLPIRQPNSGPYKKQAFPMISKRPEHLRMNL

[6] = test system: Epidermal growth factor receptor (Homo sapiens), P00533 [UNDEFINED MUTATION]; test: Selectivity interaction (Ambit KINOMEscan and KiNATiv profiling in Jurkat cells) EUB0000090b EGFR; type: cell-based; conditions: at 1 µM
Chain of Epidermal growth factor receptor (Homo sapiens), P00533 [UNDEFINED MUTATION] (P00533 whole entry, looked up, change not shown): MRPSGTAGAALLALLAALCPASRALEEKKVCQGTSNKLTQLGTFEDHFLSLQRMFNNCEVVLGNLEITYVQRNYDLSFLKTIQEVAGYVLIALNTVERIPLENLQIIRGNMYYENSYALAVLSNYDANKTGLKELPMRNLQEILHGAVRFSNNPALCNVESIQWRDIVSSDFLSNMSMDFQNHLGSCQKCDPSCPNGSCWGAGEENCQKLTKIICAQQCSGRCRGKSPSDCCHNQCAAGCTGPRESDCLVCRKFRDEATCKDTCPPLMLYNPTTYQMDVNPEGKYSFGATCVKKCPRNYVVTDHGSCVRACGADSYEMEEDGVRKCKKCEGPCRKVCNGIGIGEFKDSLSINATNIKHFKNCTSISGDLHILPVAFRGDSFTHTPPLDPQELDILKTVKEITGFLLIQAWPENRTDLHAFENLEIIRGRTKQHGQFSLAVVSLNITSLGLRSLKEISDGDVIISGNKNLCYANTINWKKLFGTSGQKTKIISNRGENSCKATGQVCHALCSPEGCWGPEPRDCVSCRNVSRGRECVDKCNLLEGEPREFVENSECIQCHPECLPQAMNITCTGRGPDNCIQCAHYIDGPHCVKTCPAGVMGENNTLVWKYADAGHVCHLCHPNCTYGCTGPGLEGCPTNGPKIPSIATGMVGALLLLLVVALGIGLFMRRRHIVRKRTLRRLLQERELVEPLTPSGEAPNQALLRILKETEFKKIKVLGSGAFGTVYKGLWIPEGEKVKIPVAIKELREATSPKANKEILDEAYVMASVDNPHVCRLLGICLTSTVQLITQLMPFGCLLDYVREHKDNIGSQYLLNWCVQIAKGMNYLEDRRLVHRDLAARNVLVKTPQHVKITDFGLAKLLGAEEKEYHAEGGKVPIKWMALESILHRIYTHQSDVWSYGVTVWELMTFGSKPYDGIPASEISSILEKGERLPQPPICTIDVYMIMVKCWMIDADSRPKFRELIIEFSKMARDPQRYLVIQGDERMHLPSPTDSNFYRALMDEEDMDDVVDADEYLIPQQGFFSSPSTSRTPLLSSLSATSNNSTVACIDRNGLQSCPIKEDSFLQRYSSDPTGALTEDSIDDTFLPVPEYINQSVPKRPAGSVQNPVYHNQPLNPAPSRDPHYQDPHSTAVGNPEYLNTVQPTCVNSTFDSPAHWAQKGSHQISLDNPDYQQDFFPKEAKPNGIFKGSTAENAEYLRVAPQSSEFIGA

[7] = molecular target: T2, Serine/threonine-protein kinase Sgk3 (Homo sapiens) (UniProt Q96BR1); test: Selectivity interaction (KinomeScan (DiscoverX)) EUB0000045b SGK3
T2 sequence (whole entry): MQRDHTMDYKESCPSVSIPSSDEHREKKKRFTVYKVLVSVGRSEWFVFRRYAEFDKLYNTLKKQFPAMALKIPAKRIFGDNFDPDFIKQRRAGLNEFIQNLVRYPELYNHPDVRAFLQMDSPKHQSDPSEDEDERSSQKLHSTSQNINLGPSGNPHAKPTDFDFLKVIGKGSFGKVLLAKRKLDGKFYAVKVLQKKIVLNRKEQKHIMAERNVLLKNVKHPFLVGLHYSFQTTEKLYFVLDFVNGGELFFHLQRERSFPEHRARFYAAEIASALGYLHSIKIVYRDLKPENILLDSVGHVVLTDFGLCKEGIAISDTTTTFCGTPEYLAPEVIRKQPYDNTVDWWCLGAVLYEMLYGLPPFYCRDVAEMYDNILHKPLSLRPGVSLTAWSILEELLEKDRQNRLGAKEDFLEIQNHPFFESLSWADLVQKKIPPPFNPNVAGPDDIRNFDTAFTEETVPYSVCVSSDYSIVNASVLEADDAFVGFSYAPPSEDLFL

[8] = molecular target: T3, Serine/threonine-protein kinase Nek9 (Homo sapiens) (UniProt Q8TD19); test: Selectivity interaction (KinomeScan (DiscoverX)) EUB0000618a NEK9; conditions: at 10 µM
T3 sequence (whole entry): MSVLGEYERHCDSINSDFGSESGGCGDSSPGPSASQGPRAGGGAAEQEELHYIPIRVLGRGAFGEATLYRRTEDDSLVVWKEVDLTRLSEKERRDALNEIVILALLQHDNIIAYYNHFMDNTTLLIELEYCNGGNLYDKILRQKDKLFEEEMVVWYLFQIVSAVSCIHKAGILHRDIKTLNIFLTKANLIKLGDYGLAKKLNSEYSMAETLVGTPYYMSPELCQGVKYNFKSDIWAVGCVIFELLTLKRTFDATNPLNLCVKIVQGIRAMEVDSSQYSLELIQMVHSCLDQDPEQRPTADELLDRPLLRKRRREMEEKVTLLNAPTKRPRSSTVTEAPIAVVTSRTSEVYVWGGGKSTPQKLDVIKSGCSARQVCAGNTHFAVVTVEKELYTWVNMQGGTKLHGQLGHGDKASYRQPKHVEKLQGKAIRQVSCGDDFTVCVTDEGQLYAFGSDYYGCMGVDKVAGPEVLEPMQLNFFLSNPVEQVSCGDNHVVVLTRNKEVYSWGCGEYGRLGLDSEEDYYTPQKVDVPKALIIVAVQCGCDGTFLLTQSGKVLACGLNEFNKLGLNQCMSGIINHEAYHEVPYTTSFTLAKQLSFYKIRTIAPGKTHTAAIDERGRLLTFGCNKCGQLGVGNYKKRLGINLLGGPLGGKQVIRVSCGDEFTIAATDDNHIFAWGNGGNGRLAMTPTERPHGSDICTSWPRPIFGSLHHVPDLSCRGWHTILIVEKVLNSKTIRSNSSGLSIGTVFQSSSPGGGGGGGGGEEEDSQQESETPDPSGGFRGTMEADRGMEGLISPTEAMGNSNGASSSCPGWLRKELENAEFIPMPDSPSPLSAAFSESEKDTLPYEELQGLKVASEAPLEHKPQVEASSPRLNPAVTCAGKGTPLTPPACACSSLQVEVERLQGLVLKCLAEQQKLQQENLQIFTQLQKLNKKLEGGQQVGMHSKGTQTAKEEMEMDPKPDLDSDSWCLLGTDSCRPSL

[9] = test system: Tyrosine-protein kinase ABL1 (Homo sapiens), P00519 [H396P]; conditions: at 10 µM
[10] = molecular target: T4, Mitogen-activated protein kinase 13 (Homo sapiens) (UniProt O15264); test: Selectivity interaction (Kinase panel (Z-LYTE Assay)) EUB0001632a MAPK13; conditions: at 10 µM
T4 sequence (whole entry): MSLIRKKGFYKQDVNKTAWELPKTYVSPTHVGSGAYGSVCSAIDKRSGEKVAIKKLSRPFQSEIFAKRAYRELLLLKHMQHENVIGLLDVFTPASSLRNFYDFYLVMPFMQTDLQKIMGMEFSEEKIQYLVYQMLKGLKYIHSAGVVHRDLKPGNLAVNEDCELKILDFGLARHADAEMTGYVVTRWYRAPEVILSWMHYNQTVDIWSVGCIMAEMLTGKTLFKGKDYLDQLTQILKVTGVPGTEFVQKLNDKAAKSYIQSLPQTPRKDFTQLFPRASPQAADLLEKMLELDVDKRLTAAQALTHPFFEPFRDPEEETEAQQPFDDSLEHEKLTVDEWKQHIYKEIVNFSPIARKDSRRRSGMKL

For `COc1cc(N(C)c2ccnc3ccc(C(F)(F)F)cc23)cc(OC)c1OC`, which % binding [1] is on record?
Its % binding is 89%.

How did the % of control [2] turn out when `CCN(CC)CCCCNc1ncc2cc(-c3cc(OC)cc(OC)c3)c(NC(=O)NC(C)(C)C)nc2n1` was run?
Its % of control is 100%.

With `CC[C@@H]1[C@H](F)C(=O)N[C@@H]1COc1nccc2cc(C(N)=O)c(OC)cc12` [ZIMLOVISERTIB] as the compound, how does the % of inhibition ([3]; at 0.01 µM) read?
Its % of inhibition is 0.5%.

And the % of inhibition ([3]; at 0.04 µM)?
The % of inhibition was 6.6%.

What about the % of inhibition ([3]; at 0.2 µM) of the same compound?
Its % of inhibition is -14.2%.

What about the % of inhibition ([3]; at 1 µM) of the same compound?
Its % of inhibition is 6.3%.

And the % of inhibition ([3]; at 5 µM)?
The % of inhibition was 19.6%.

And the % of inhibition [4]?
The % of inhibition was -8.3%.

With `COCC(=O)NC/C=C/c1ccc2ncnc(Nc3ccc(Oc4ccc(C)nc4)c(C)c3)c2c1` [CP-724714] as the compound, how does the % of control [5] read?
The % of control was 65%.

How did the % of control [6] turn out when `CN(C)C/C=C/C(=O)Nc1ccc(C(=O)N2CCCC(Nc3ncc(Cl)c(-c4c[nH]c5ccccc45)n3)C2)cc1` (stereo not given) was run?
The % of control was 94%.

What does the source list for `C=CC(=O)Nc1cc(-n2c(=O)ccc3cnc4ccc(-c5ccc(NS(C)(=O)=O)cc5)cc4c32)ccc1C`?
% of control ([7]; at 1 µM): 100%; % of control ([7]; at 10 µM): 100%

Which % of control [8] does the source give for `O[C@H]1CC[C@H](Nc2ncc3nc(Nc4c(F)cc(F)cc4F)n([C@H]4CCOC4)c3n2)CC1` here?
The % of control was 100%.

`Cc1cc([C@@H](C)Nc2ccccc2C(=O)O)c2nc(N3CCOCC3)cc(=O)n2c1` [AZD-6482] was tested. Which % of control [9] did it give?
Its % of control is 87%.

How did the % of control [10] turn out when `Cn1cc(-n2cnc3c(NCc4nc5cc(Cl)c(Cl)cc5[nH]4)nc(N4CCOCC4)nc32)cn1` was run?
Its % of control is 3.12%.
